# Key:
# [1] = target: T1, rat mGluR5 receptor (Rattus norvegicus, UniProt P31424); experiment: mGluR5 assay on HEK-expressing rat mGluR5 (fluorescent cell based Ca2+ mobilization assay); conditions: HEK-293 cells stably expressing rat mGluR5; no co-addition of glutamate; mean of at least three independent experiments in duplicate; read-out: Ca++ Flux (mean EC50)
# T1 construct: expressed in transfected cells
# Method: Positive functional expression of HEK-293 cells stably expressing rat mGluR5 receptor was determined by measuring intracellular Ca^2+ changes using a Fluorometric Imaging Plate Reader (FLIPR, Molecular Devices, Sunnyvale, Calif.) in response to glutamate or selective known mGluR5 agonists and antagonists. Rat mGluR5 RT-PCR products in HEK-293 cells were sequenced and found 100% identical to rat mGluR5 Genbank reference sequence (NM_017012). HEK-293 cells expressing rmGluR5 were maintained in media containing DMEM, dialyzed Fetal Bovine Serum (10%), Glutamax™ (2 mM), Penicillin (100 units/ml), Streptomycin (100 μg/ml), Geneticin (100 μg/ml) and Hygromycin-B (40 μg/ml) at 37° C./5% CO2.
# After one day of incubation, cells were washed with assay buffer containing: 142 mM NaCl, 6 mM KCl, 1 mM […], 1 mM CaCl2, 20 mM HEPES, 1 g/L glucose, 0.125 mM sulfinpyrazone, pH 7.4. After 60 min of loading with 4 uM Fluo-4 (TefLabs, Austin, Tex.), the cells were washed three times with 50 μl of PBS Buffer and resuspended in 45 μl of assay Buffer. The plates were then transferred to a Fluorometric Imaging Plate Reader (FLIPR, Molecular Devices, Sunnyvale, Calif.) for the assessment of intracellular calcium flux. After monitoring the baseline fluorescence for 10 seconds, increasing concentrations of representative compound (from 0.01 to 60 μM) of the present invention diluted in Assay Buffer (15 μl of 4× dilutions) was added to the cell. The final DMSO concentration in the assay was 0.3%. In each experiment, fluorescence was then monitored as a function of time for 3 minutes and the data analyzed using Microsoft Excel and GraphPad Prism. Each data point was also measured two times.
# Under these experimental conditions, this HEK-rat mGluR5 cell line is able to directly detect positive allosteric modulators without the need of co-addition of glutamate or mGluR5 agonist.
# The concentration-response curves of representative compounds of the present invention were generated using the Prism GraphPad software (Graph Pad Inc, San Diego, USA). The curves were fitted to a four-parameter logistic equation:
# (Y=Bottom+(Top−Bottom)/(1+10̂((LogEC50−X)*Hill Slope)
# allowing determination of EC50 values.
# The Table 1 below represents the mean EC50 obtained from at least three independent experiments of selected molecules performed in duplicate.
# T1 sequence (P31424 21-1171 isoform P31424-2 limits assumed): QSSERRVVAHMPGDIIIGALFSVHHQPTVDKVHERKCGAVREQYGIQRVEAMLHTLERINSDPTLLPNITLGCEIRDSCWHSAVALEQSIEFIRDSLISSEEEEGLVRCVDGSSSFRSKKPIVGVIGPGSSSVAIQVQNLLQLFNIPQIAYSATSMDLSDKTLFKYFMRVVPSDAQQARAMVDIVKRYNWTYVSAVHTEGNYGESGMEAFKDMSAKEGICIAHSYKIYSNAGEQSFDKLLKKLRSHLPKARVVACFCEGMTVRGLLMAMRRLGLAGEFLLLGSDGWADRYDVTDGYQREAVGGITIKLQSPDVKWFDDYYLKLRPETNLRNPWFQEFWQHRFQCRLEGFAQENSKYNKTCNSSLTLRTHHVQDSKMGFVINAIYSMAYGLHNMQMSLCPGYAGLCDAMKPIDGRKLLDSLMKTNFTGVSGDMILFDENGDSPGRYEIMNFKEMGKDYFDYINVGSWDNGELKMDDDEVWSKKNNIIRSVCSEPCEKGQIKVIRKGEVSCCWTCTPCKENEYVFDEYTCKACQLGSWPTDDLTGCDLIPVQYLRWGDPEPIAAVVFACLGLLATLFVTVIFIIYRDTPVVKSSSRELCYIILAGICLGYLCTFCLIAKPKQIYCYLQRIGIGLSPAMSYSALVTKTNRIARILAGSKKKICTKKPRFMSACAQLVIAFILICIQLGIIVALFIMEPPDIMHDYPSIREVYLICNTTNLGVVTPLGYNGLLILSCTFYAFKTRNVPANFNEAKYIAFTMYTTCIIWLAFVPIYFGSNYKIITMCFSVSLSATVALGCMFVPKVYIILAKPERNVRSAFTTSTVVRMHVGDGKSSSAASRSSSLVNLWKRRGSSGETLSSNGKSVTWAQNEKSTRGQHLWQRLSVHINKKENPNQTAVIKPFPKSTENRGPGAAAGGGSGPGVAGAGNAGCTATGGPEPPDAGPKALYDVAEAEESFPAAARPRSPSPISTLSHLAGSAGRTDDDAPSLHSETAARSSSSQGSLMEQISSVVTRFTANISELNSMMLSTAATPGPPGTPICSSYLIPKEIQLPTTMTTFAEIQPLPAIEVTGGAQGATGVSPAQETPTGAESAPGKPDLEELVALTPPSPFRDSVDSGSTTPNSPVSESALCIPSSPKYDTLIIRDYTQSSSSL
Structure (SMILES),EC50 [1],melting point
"O=C(c1ccc(F)cc1F)N1CCCC(c2noc(-c3ccc[nH]3)n2)C1 (centres unmarked) [Example 6, (2,4-Difluoro-phenyl)-{3-[5-(1H-pyrrol-2-yl)-[1,2,4]oxadiazol-3-yl]-piperidin-1-yl}-methanone]",< 1000 nM,151 °C
"O=C(c1ccc(F)cc1)N1CCCC(c2noc(-c3ccc[nH]3)n2)C1 (centres unmarked) [Example 7, (4-Fluoro-phenyl)-{3-[5-(1H-pyrrol-2-yl)-[1,2,4]oxadiazol-3-yl]-piperidin-1-yl}-methanone]",< 1000 nM,158 °C
"Cc1cc(F)ccc1C(=O)N1CCCC(c2noc(-c3ccc[nH]3)n2)C1 (centres unmarked) [Example 9, (4-Fluoro-2-methyl-phenyl)-{3-[5-(1H-pyrrol-2-yl)-[1,2,4]oxadiazol-3-yl]-piperidin-1-yl}-methanone]",1000 to 10000 nM,203 °C
"O=C(c1ccc(F)cc1)N1CCCC(c2noc(-c3cc4ccccc4[nH]3)n2)C1 (centres unmarked) [Example 11, (4-Fluoro-phenyl)-{3-[5-(1H-indol-2-yl)-[1,2,4]oxadiazol-3-yl]-piperidin-1-yl}-methanone]",1000 to 10000 nM,199 to 201 °C
"O=C(c1ccc(F)c(F)c1)N1CCC[C@H](c2nc(-c3cc4ccccc4[nH]3)no2)C1 [Example 15, (3,4-Difluoro-phenyl)-{(S)-3-[3-(1H-indol-2-yl)-[1,2,4]oxadiazol-5-yl]-piperidin-1-yl}-methanone]",> 10000 nM,93 to 94 °C
"Cc1oncc1C(=O)N1CCC[C@H](c2nc(-c3cc4ccccc4[nH]3)no2)C1 [Example 19, {(S)-3-[3-(1H-Indol-2-yl)-[1,2,4]oxadiazol-5-yl]-piperidin-1-yl}-(5-methyl-isoxazol-4-yl)-methanone]",1000 to 10000 nM,163 to 164 °C
"Cc1oncc1C(=O)N1CCC[C@H](c2nc(-c3ccc[nH]3)no2)C1 [Example 20, (5-Methyl-isoxazol-4-yl)-{(S)-3-[3-(1H-pyrrol-2-yl)-[1,2,4]oxadiazol-5-yl]-piperidin-1-yl}-methanone]",> 10000 nM,125 to 127 °C
"O=C(c1ccc(F)c(F)c1)N1CCC[C@H](c2nc(-c3ncc[nH]3)no2)C1 [Example 25, (3,4-Difluoro-phenyl)-{(S)-3-[3-(1H-imidazol-2-yl)-[1,2,4]oxadiazol-5-yl]-piperidin-1-yl}-methanone]",1000 to 10000 nM,156 to 157 °C
"O=C(c1ccnc(F)c1)N1CCC[C@H](c2nc(-c3cc(Cl)c[nH]3)no2)C1 [Example 66, {(S)-3-[3-(4-Chloro-1H-pyrrol-2-yl)-[1,2,4]oxadiazol-5-yl]-piperidin-1-yl}-(2-fluoro-pyridin-4-yl)-methanone]",1000 to 10000 nM,–
"O=C(c1ccncc1F)N1CCC[C@H](c2nc(-c3cc(Cl)c[nH]3)no2)C1 [Example 67, {(S)-3-[3-(4-Chloro-1H-pyrrol-2-yl)-[1,2,4]oxadiazol-5-yl]-piperidin-1-yl}-(3-fluoro-pyridin-4-yl)-methanone]",1000 to 10000 nM,–
"Cc1oncc1C(=O)N1CCC[C@H](c2nc(-c3cc(Cl)c[nH]3)no2)C1 [Example 68, {(S)-3-[3-(4-Chloro-1H-pyrrol-2-yl)-[1,2,4]oxadiazol-5-yl]-piperidin-1-yl}-(5-methyl-isoxazol-4-yl)-methanone]",1000 to 10000 nM,–
"O=C(c1ccncc1F)N1CCC[C@H](c2nc(-c3cc(Br)c[nH]3)no2)C1 [Example 69, {(S)-3-[3-(4-Bromo-1h-pyrrol-2-yl)-[1,2,4]oxadiazol-5-yl]-piperidin-1-yl}-(3-fluoro-pyridin-4-yl)-methanone]",1000 to 10000 nM,–
"O=C(c1ccncc1F)N1CCC[C@H](c2nc(-c3cc(F)c[nH]3)no2)C1 [Example 70, (3-Fluoro-pyridin-4-yl)-{(S)-3-[3-(4-fluoro-1H-pyrrol-2-yl)-[1,2,4]oxadiazol-5-yl]-piperidin-1-yl}-methanone]",1000 to 10000 nM,–
"Cc1c[nH]c(-c2noc([C@H]3CCCN(C(=O)c4ccncc4F)C3)n2)c1 [Example 71, (3-Fluoro-pyridin-4-yl)-{(S)-3-[3-(4-methyl-1H-pyrrol-2-yl)-[1,2,4]oxadiazol-5-Yl]-piperidin-1-yl}-methanone]",1000 to 10000 nM,–
"Cc1c[nH]c(-c2noc([C@H]3CCCN(C(=O)c4ccc(F)c(F)c4)C3)n2)n1 [Example 79, (3,4-Difluoro-phenyl)-{(S)-3-[3-(4-methyl-1H-imidazol-2-yl)-[1,2,4]oxadiazol-5-yl]-piperidin-1-yl}-methanone]",1000 to 10000 nM,–

# Now from value to molecule:
EC50 [1],melting point,Structure (SMILES)
1000 to 10000 nM,131 to 132 °C,"O=C(c1ccc(F)nc1)N1CCC[C@H](c2nc(-c3ccc[nH]3)no2)C1 [Example 4, (6-Fluoro-pyridin-3-yl)-{(S)-3-[3-(1H-pyrrol-2-yl)-[1,2,4]oxadiazol-5-yl]-piperidin 1-yl}-methanone]"
< 1000 nM,177 °C,"O=C(c1ccc(F)c(F)c1)N1CCCC(c2noc(-c3ccc[nH]3)n2)C1 (centres unmarked) [Example 5, (3,4-Difluoro-phenyl)-{3-[5-(1H-pyrrol-2-yl)-[1,2,4]oxadiazol-3-yl]-piperidin-1-yl}-methanone]"
1000 to 10000 nM,143 °C,"O=C(c1ccc(F)nc1)N1CCCC(c2noc(-c3ccc[nH]3)n2)C1 (centres unmarked) [Example 8, (6-Fluoro-pyridin-3-yl)-{3-[5-(1H-pyrrol-2-yl)-[1,2,4]oxadiazol-3-yl]-piperidin-1-yl}-methanone]"
< 1000 nM,168 °C,"O=C(c1ccc(F)c(F)c1)N1CCC[C@H](c2noc(-c3ccc[nH]3)n2)C1 [Example 10, (3,4-Difluoro-phenyl)-{(S)-3-[5-(1H-pyrrol-2-yl)-[1,2,4]oxadiazol-3-yl]-piperidin-1-yl}-methanone]"
1000 to 10000 nM,148.5 to 148.9 °C,"O=C(c1ccc(F)c(F)c1)N1CCCC(c2noc(-c3ncc[nH]3)n2)C1 (centres unmarked) [Example 18, (3,4-Difluoro-phenyl)-{3-[5-(1H-imidazol-2-yl)-[1,2,4]oxadiazol-3-yl]-piperidin-1-yl}-methanone]"
< 1000 nM,147 °C,"O=C(c1ccc(F)nc1)N1CCC[C@H](c2noc(-c3ccc[nH]3)n2)C1 [Example 21, (6-Fluoro-pyridin-3-yl)-{(S)-3-[5-(1H-pyrrol-2-yl)-[1,2,4]oxadiazol-3-yl]-piperidin-1-yl}-methanone]"
< 1000 nM,181 °C,"O=C(c1ccc(F)cc1)N1CCC[C@H](c2noc(-c3ccc[nH]3)n2)C1 [Example 22, (4-Fluoro-phenyl)-{(S)-3-[5-(1H-pyrrol-2-yl)-[1,2,4]oxadiazol-3-yl]-piperidin-1-yl}-methanone]"
1000 to 10000 nM,163.1 to 164.3 °C,"O=C(c1ccc(F)nc1)N1CCCC(c2noc(-c3cc4ccccc4[nH]3)n2)C1 (centres unmarked) [Example 23, (6-Fluoro-pyridin-3-yl)-{3-[5-(1H-indol-2-yl)-[1,2,4]oxadiazol-3-yl]-piperidin-1-yl}-methanone]"
< 1000 nM,–,"O=C(c1ccnc(F)c1)N1CCC[C@H](c2noc(-c3cc(F)c[nH]3)n2)C1 [Example 60, (2-Fluoro-pyridin-4-yl)-{(s)-3-[5-(4-fluoro-1H-pyrrol-2-yl)-[1,2,4]oxadiazol-3-yl]-piperidin-1-yl}-methanone]"
1000 to 10000 nM,–,"O=C(c1ccc(F)nc1)N1CCC[C@H](c2noc(-c3cc(F)c[nH]3)n2)C1 [Example 64, (6-Fluoro-pyridin-3-yl)-{(S)-3-[5-(4-fluoro-1H-pyrrol-2-yl)-[1,2,4]oxadiazol-3-yl]-piperidin-1-yl}-methanone]"
1000 to 10000 nM,–,"O=C(c1ccc(F)nc1)N1CCC[C@H](c2nc(-c3cc(Cl)c[nH]3)no2)C1 [Example 65, {(S)-3-[3-(4-Chloro-1H-pyrrol-2-yl)-[1,2,4]oxadiazol-5-yl]-piperidin-1-yl}-(6-fluoro-pyridin-3-yl)-methanone]"
1000 to 10000 nM,–,"O=C(c1ccncc1F)N1CCC[C@H](c2noc(-c3cc(C(F)(F)F)c[nH]3)n2)C1 [Example 77, (3-Fluoro-pyridin-4-yl)-{(S)-3-[5-(4-trifluoromethyl-1H-pyrrol-2-yl)[1,2,4]oxadiazol-3-yl]-piperidin-1-yl}-methanone]"
–,165.7 °C,"O=C(c1ccc(F)nc1)N1CCC[C@H](c2noc(-c3cc(C(F)(F)F)c[nH]3)n2)C1 [Example 78, (6-Fluoro-pyridin-3-yl)-{(S)-3-[5-(4-trifluoromethyl-1H-pyrrol-2-yl)-[1,2,4]oxadiazol-3-yl]-piperidin-1-yl}-methanone]"
